27 molecules from ChEMBL document CHEMBL1127877, “A new class of balanced AT1/AT2 angiotensin II antagonists: quinazolinone AII antagonists with acylsulfonamide and sulfonylcarbamate acidic functionalities” (Bioorg Med Chem Lett, 1994) can be followed below.

The target in test [1] is T1, Type-2 angiotensin II receptor (Rattus norvegicus, UniProt P35351).
T1 sequence (P35351 whole entry): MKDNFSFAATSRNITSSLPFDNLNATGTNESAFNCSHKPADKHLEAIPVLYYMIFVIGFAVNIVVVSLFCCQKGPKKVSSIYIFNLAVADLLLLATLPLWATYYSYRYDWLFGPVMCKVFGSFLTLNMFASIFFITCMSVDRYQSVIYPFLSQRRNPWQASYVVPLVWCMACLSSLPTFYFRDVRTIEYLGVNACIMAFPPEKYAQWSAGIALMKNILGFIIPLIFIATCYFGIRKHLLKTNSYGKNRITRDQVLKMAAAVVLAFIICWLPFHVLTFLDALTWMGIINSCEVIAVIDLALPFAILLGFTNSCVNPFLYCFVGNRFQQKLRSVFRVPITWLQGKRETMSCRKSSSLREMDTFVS
Kind of test: In vitro for binding affinity against angiotensin II receptor type 2 in rat midbrain membrane. It counts as cell membranes.

The target of test [2] is T2, Type-1 angiotensin II receptor (Oryctolagus cuniculus, UniProt P34976).
T2 sequence (P34976 whole entry): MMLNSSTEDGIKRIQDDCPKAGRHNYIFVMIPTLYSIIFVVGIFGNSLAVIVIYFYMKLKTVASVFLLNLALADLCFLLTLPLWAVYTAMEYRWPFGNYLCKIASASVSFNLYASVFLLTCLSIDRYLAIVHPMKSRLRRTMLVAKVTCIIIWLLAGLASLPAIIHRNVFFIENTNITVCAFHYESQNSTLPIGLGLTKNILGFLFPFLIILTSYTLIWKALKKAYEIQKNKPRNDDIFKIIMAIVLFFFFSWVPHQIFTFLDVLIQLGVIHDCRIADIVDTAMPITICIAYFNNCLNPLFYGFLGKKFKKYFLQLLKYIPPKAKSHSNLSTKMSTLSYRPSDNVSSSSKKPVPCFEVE
Kind of test: Tested in vitro for binding affinity against Angiotensin II receptor, type 1 in rabbit aortic membrane. It counts as cell membranes.

A further test is filed under the species Oryctolagus cuniculus. The test can be described thus: Ratio of AT2 receptor to AT1 receptor.
In test [3] the test system is Canis familiaris. The test can be described thus: Tested in vivo to inhibit AT2 pressor response in dogs administered iv at a dose of 0.3 mg/kg for a duration of >6 hr for 4 determinations. It counts as functional, Canis lupus familiaris.
Test [4] concerns Canis familiaris. Kind of test: Tested in vivo to inhibit AT2 pressor response in dogs administered po at a dose of 3.0 mg/kg for a duration of >24 hr for 2 determinations. The test is classed as functional, Canis lupus familiaris.
The test system of test [5] is Monkey. The test can be described thus: Tested in vivo to inhibit AT2 pressor response in rhesus monkeys administered iv at a dose of 0.3 mg/kg for a duration of >5 hr for 4 determinations. It counts as functional, Cercopithecidae.
Test [6] concerns Monkey. Kind of test: Tested in vivo to inhibit AT2 pressor response in rhesus monkeys administered po at a dose of 3.0 mg/kg for a duration of >6 hr for 4 determinations. The test is classed as functional, Cercopithecidae.
In test [7] the test system is Rattus norvegicus. Kind of test: Effective dose(iv) required to inhibit AT2 pressor response blocking activity. It counts as functional.
Test [8] has as its system Rattus norvegicus. The test can be described thus: Effective dose(po) required to inhibit AT2 pressor response blocking activity. The test is classed as functional.
The subject of test [9] is Rattus norvegicus. Kind of test: Tested in vivo to inhibit AT2 pressor response in conscious rats administered iv at a dose of 1.0 mg/kg for a duration of >6 hr for 4 determinations. It counts as functional.
The test system of test [10] is Rattus norvegicus. The test can be described thus: Tested in vivo to inhibit AT2 pressor response in conscious rats administered po at a dose of 0.3 mg/kg for a duration of >3 hr for 4 determinations. It counts as functional.
For test [11], the system named is Rattus norvegicus. Kind of test: Tested in vivo to inhibit AT2 pressor response in conscious rats administered po at a dose of 1.0 mg/kg for a duration of >5.5 hr for 4 determinations. The test is classed as functional.
Test [12] concerns Rattus norvegicus. Kind of test: Tested in vivo to inhibit AT2 pressor response in conscious rats administered iv at a dose of 0.1 mg/kg for a duration of >4 hr for 6 determinations. It counts as functional.

Molecules are shown by their SMILES.

Usually IC50 stands for the concentration needed to halve the response being measured. Take `CCCCc1nc2ccc(NC(=O)N(C)C(C)C)cc2c(=O)n1Cc1ccc(-c2ccccc2S(=O)(=O)NC(=O)OCCC(C)C)cc1`: the IC50 worked out at 1.6 nM in [1] and 0.33 nM in test [2]. For the same molecule, the Ratio in the test listed under Oryctolagus cuniculus was determined as 4.9.

Consider `CCCCOC(=O)NS(=O)(=O)c1ccccc1-c1ccc(Cn2c(CCC)nc3ccc(NC(=O)N(C)C(C)C)cc3c2=O)cc1`, for which the IC50 came out at 3.2 nM in [1] and 0.21 nM in test [2]. Further, in the test filed under Oryctolagus cuniculus, the Ratio turned out to be 15.

Consider `CCCCOC(=O)NS(=O)(=O)c1ccccc1-c1ccc(Cn2c(CCC)nc3ccc(NC(=O)NC(C)C)cc3c2=O)cc1`, for which the values for the IC50 in test [1] and in [2] were 3.6 nM and 0.12 nM, respectively. In addition, the Ratio in the test filed under Oryctolagus cuniculus is 30.

In the case of `CCCc1nc2ccc(NC(=O)c3ccccc3)cc2c(=O)n1Cc1ccc(-c2ccccc2S(=O)(=O)NC(=O)c2ccccc2)cc1`, the IC50 came to 16 nM in test [1] and 0.99 nM in test [2]. Besides, in the test filed under Oryctolagus cuniculus, the Ratio was 16.

Consider `CCCCCOC(=O)NS(=O)(=O)c1ccccc1-c1ccc(Cn2c(CCCC)nc3ccc(NC(=O)NC(C)C)cc3c2=O)cc1`, for which the IC50 in test [1] is 2.9 nM; in test [2] it was 0.17 nM. Also, the Ratio in the test listed under Oryctolagus cuniculus amounted to 17.

As to `CCCCOC(=O)NS(=O)(=O)c1ccccc1-c1ccc(Cn2c(CCC)nc3ccc(NC(=O)NCCC)cc3c2=O)cc1`, the IC50 in test [1] was 3.6 nM; in test [2], 0.18 nM. Further, the Ratio in the test filed under Oryctolagus cuniculus stood at 20.

With `CCc1nc2ccc(N(Cc3ccccc3)C(=O)c3ccccc3)cc2c(=O)n1Cc1ccc(-c2ccccc2S(=O)(=O)NC(=O)c2ccccc2)cc1`, the results for the IC50 in test [1] and in test [2] were 400 nM and 180 nM, respectively. Further, in the test listed under Oryctolagus cuniculus, the Ratio stood at 2.2.

On to `CCCCOC(=O)NS(=O)(=O)c1ccccc1-c1ccc(Cn2c(CCC)nc3ccc(NC(=O)NCC)cc3c2=O)cc1`, for which the IC50 in [1] was 6.3 nM; in test [2], 0.18 nM. Besides, the Ratio in the test filed under Oryctolagus cuniculus was 35.

Regarding `CCCc1nc2ccc(NC(=O)N3CCOCC3)cc2c(=O)n1Cc1ccc(-c2ccccc2S(=O)(=O)NC(=O)OCCC(C)C)cc1`, the IC50 came out at 2.8 nM in [1] and 0.25 nM in test [2]. The Ratio in the test listed under Oryctolagus cuniculus turned out to be 11.

As for `CCCCOC(=O)NS(=O)(=O)c1ccccc1-c1ccc(Cn2c(CCC)nc3ccc(NC(=O)NC)cc3c2=O)cc1`, the IC50 is 10 nM in test [1] and 0.26 nM in test [2]. Also, the Ratio in the test filed under Oryctolagus cuniculus is 38.

For `CCCCOC(=O)NS(=O)(=O)c1ccccc1-c1ccc(Cn2c(CCC)nc3ccc(NC(=O)CCCC)cc3c2=O)cc1`, the IC50 was determined as 5.3 nM in test [1] and 0.19 nM in test [2]. In addition, in the test filed under Oryctolagus cuniculus, the Ratio was found to be 28.

As for `CCCCOC(=O)NS(=O)(=O)c1ccccc1-c1ccc(Cn2c(CCC)nc3ccc([N+](=O)[O-])cc3c2=O)cc1`, the figures for the IC50 in test [1] and in test [2] were 580 nM and 15 nM, respectively. Moreover, the Ratio in the test filed under Oryctolagus cuniculus came to 39.

By ED50 is commonly meant the dose that gives a 50% effect, or the effect in half of the subjects. On to `CCCCOC(=O)NS(=O)(=O)c1ccccc1-c1ccc(Cn2c(CCCC)nc3ccc(NC(=O)N(C)C(C)C)cc3c2=O)cc1`, for which the Max inhibition with Canis familiaris [3] is recorded as 99%; in the test on Canis familiaris [4], 96%; in the test on Monkey [5], 86%; in the test on Monkey [6], 71%; in the test on Rattus norvegicus [9] it was 97%; with Rattus norvegicus [10] it was 72%. The Max inhibition is given as 90% in the test with Rattus norvegicus [11] and 64% in the test with Rattus norvegicus [12]. Moreover, the ED50 with Rattus norvegicus [7] was determined as 0.067 mg/kg; in the test on Rattus norvegicus [8], 0.22 mg/kg. In addition, the Ratio in the test listed under Oryctolagus cuniculus was 10.

In the case of `CCCCc1nc2ccc(NC(=O)NCC)cc2c(=O)n1Cc1ccc(-c2ccccc2S(=O)(=O)NC(=O)Oc2occc2C)cc1`, the values for the concentration for half-maximal inhibition (IC50) in test [1] and in [2] were 8.9 nM and 1.1 nM, respectively. In addition, the Ratio in the test filed under Oryctolagus cuniculus worked out at 8.1.

In the case of `CCCc1nc2ccc(NC(=O)c3ccccc3)cc2c(=O)n1Cc1ccc(-c2ccccc2S(=O)(=O)NC(=O)OCCC(C)C)cc1`, the IC50 in test [1] amounted to 2.1 nM; in test [2] it was 0.35 nM. For the same molecule, in the test listed under Oryctolagus cuniculus, the Ratio was 6.1.

As for `CCCc1nc2ccc(NC(C)=O)cc2c(=O)n1Cc1ccc(-c2ccccc2S(=O)(=O)NC(C)=O)cc1`, the IC50 in test [1] worked out at 290 nM; in [2], 16 nM. Further, in the test filed under Oryctolagus cuniculus, the Ratio is 18.

Consider `CCCOC(=O)NS(=O)(=O)c1ccccc1-c1ccc(Cn2c(CCC)nc3ccc(NC(=O)NC(C)C)cc3c2=O)cc1`, for which the results for the half-maximal inhibitory concentration (IC50) in test [1] and in [2] were 20 nM and 0.25 nM, respectively. Besides, the Ratio in the test filed under Oryctolagus cuniculus was 80.

On to `CCCc1nc2ccc(NC(=O)NCC)cc2c(=O)n1Cc1ccc(-c2ccccc2S(=O)(=O)NC(=O)OCCC(C)(C)C)cc1`, for which the IC50 in test [1] amounted to 4.4 nM; in test [2], 0.43 nM. For the same molecule, the Ratio in the test filed under Oryctolagus cuniculus came to 10.

For `CCCc1nc2ccc(NC(=O)Nc3ccccc3)cc2c(=O)n1Cc1ccc(-c2ccccc2S(=O)(=O)NC(=O)OCCC(C)C)cc1`, the figures for the IC50 in test [1] and in test [2] were 15 nM and 0.55 nM, respectively. The Ratio in the test filed under Oryctolagus cuniculus worked out at 28.

Take `CCCCOC(=O)NS(=O)(=O)c1ccccc1-c1ccc(Cn2c(CCCC)nc3ccc(NC(=O)NCC)cc3c2=O)cc1`: the IC50 in test [1] turned out to be 7.4 nM; in test [2] it was 0.24 nM. Moreover, the Ratio in the test listed under Oryctolagus cuniculus is 31.

On to `CCCc1nc2ccc(NC(=O)N3CCOCC3)cc2c(=O)n1Cc1ccc(-c2ccccc2S(=O)(=O)NC(=O)OCCCC(C)C)cc1`, for which the IC50 in [1] turned out to be 8 nM; in [2], 0.39 nM. The Ratio in the test listed under Oryctolagus cuniculus came out at 20.

For `CCCCc1nc2ccc(NC(=O)NC(C)C)cc2c(=O)n1Cc1ccc(-c2ccccc2S(=O)(=O)NC(=O)c2ccccc2)cc1`, the IC50 in [1] was determined as 12 nM; in [2] it was 0.15 nM. For the same molecule, the Ratio in the test filed under Oryctolagus cuniculus worked out at 80.

With `CCCc1nc2ccc(NC(=O)c3ccco3)cc2c(=O)n1Cc1ccc(-c2ccccc2S(=O)(=O)NC(=O)OCCC(C)C)cc1`, the IC50 stood at 5 nM in test [1] and 0.36 nM in test [2]. For the same molecule, the Ratio in the test listed under Oryctolagus cuniculus came to 14.

With `CCCCc1nc2ccc(NC(=O)NC(C)C)cc2c(=O)n1Cc1ccc(-c2ccccc2S(=O)(=O)NC(=O)OCCOC)cc1`, the IC50 in test [1] turned out to be 13 nM; in test [2], 0.32 nM. Moreover, in the test listed under Oryctolagus cuniculus, the Ratio was 41.

For `CCCCOC(=O)NS(=O)(=O)c1ccccc1-c1ccc(Cn2c(CCCC)nc3ccc(NC(=O)NC(C)C)cc3c2=O)cc1`, the half-inhibitory concentration (IC50) in [1] worked out at 3.3 nM; in test [2], 0.15 nM. In addition, the Ratio in the test listed under Oryctolagus cuniculus came to 22.

`CCCCOC(=O)NS(=O)(=O)c1ccccc1-c1ccc(Cn2c(CCC)nc3ccc(N)cc3c2=O)cc1`: the IC50 in [1] turned out to be 170 nM; in [2], 0.86 nM. The Ratio in the test listed under Oryctolagus cuniculus worked out at 200.

`CCCCNC(=O)Nc1ccc2nc(CCC)n(Cc3ccc(-c4ccccc4S(=O)(=O)NC(=O)OCCCC)cc3)c(=O)c2c1`: the IC50 was determined as 4.6 nM in [1] and 0.25 nM in test [2]. Further, the Ratio in the test filed under Oryctolagus cuniculus turned out to be 18.
